Literature values, collected in patent US20210393932A1, “DERMAL PATCHES AND GLASS SWABS FOR APPLICATION OF TOPICAL IMMUNOSENSITIZERS” (Squarex, LLC, priority 2020, published 2021).

Test system: common warts and alopecia areata
Conditions: solutions of 0.05% to 2.0% weight/volume, vehicle almost always acetone, applied repeatedly (Buckley et al., Lee et al.); cited from earlier work

Compound | treatment of common warts and alopecia areata
O=[N+]([O-])c1ccc(Cl)c([N+](=O)[O-])c1 [DNCB, 1-chloro-2,4-dinitrobenzene] | used successfully
O=c1c(-c2ccccc2)c1-c1ccccc1 [diphenylcyclopropenone] | used successfully
